Measured values published in patent US6774143B1, “Method for treating cells resistant to antineoplastic agents” (Novartis AG, priority 2003, dated 2004).
≈ marks a conversion by molar mass, not a printed value.

Columns and labels:
[1] = test system: 1A9PTX22 cells (β-tubulin mutation); assay: In vitro cytotoxicity assay (MTT); format: cell-based, human
Experimental: (§1) 1A9 and 1A9PTX22 cells are plated in 96-well plates at 5×10^4 cells/well, plced in a tissue culture incubator and allowed to attach overnight. The next morning, the number of viable cells in the “time 0” plate (3 wells for each cell line) is determined using an MTT assay (Alley M C, et al., Cancer Res. 1988, 48:589-601).
(§2) At the same time drugs are added in serial, 10-fold dilutions, to the experimental plates. Corresponding vehicles are added to control plates. Experimental and control plates are then incubated in the tissue culture incubator for 72 hours. After the incubation the number of viable cells is determined in each plate using the MTT assay. IC50s (defined as a concentration of a given compound causing 50% inhibition of cell growth) are determined by comparing cell growth in the drug-treated plate (T−T0) to the cell growth in the corresponding control plate (C−T0). For each experiment results are calculated using average numbers from two sets of plates.
(§3) Discodermolide is isolated from the sponge Discodermia dissoluta using the method of Gunasekera SP (supra). Multiple batches of compound of similar purity (all>95% pure, as determined by mass spectrometry, and nuclear magnetic resonance analysis) are used throughout the various studies. For the in vitro cytotoxicity assays all compounds are dissolved in DMSO and are added to the plates with cells to obtain desired concentrations. […] Paclitaxel is purchased from Sigma/Aldrich, (St. Louis, Mo.). For the in vivo hollow fiber assay, solid discodermolide is dissolved in pure ethanol to create a stock solution which is diluted just before dosing with Cremophor EL and D5W to a final concentration of 16.7% Cremophor EL, 8.3% ethanol and 75% D5W. The compound is administered to mice as a single, 15 mg/kg iv injection. Positive control animals receive clinical formulations of paclitaxel (TAXOL) diluted 4-fold with D5W (12.5% Cremophor El, 12.5% ethanol and 75% D5W final concentrations) and administered iv, at 15 mg/kg, once daily for five consecutive days. Vehicle controls are administered according to the corresponding drug schedules.

[2] = test system: 1A9 cells; assay: In vitro cytotoxicity assay (MTT); format: cell-based; conditions: Homo sapiens, 1A9, 1A9 cells; cytotoxic control; experiment not specified; read-out: IC50
Experimental: as §1, §2, §3

COc1cccc2c1C(=O)c1c(O)c3c(c(O)c1C2=O)C[C@@](O)(C(=O)CO)C[C@@H]3O[C@H]1C[C@H](N)[C@H](O)[C@H](C)O1 [Doxorubicin] was tested, and the IC50 ([1]; Homo sapiens, 1A9/ptx-22, 1A9PTX22 cells, cytotoxic control, experiment not specified, read-out: IC50) was 3 to 5 ng/mL (≈ 5.52 to 9.2 nM), the “fold resistance of 1A9PTX22 versus parental 1A9” value ([1]; from IC50s of the two in vitro experiments) was 2 fold and the IC50 [2] was 3 ng/mL (≈ 5.52 nM).
